Assay results from patent publication US11377425B1, “Small molecule modulators of IL-17” (LEO Pharma A/S, priority 2018, dated 2022).

Biological target: T1, human IL-17AA (Homo sapiens, UniProt Q16552)
T1 construct: host or cells: HEK (human embryonic kidney) cells
T1 sequence (Q16552 24-155): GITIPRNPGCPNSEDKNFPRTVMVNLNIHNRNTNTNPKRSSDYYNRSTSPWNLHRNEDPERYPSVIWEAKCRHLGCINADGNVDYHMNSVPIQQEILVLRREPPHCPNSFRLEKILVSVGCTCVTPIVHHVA
Assay: IL-8 release assay in human epithelial keratinocytes adult (HEKa)
Assay type: cell-based
Conditions: HEKa cells, 3 ng/mL HEK-human IL-17AA + 10 ng/mL human TNFalpha; read-out: Rel EC50 IL-8 release assay
Procedure, shortened: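 Adult human epidermal keratinocytes stimulated 68-72 h at 37 °C with 3 ng/mL HEK-derived human IL-17AA plus 10 ng/mL TNF-alpha (final) in the presence of compound; TNF-alpha alone defines 100% inhibition. Secreted IL-8 measured by HTRF as percent of controls; relative IC50/Emax from four-parameter fit (r^2>0.9), cytotoxicity by PrestoBlue.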

Row | Compound | EC50 [nM]
1 | Cc1ncsc1CC(=O)N[C@H](C(=O)Nc1ccc(-c2c(C)n[nH]c2C)cc1)C1CCCCC1 [Example 51, (2S)-2-cyclohexyl-N-[4-(3,5-dimethyl-1H-pyrazol-4-yl)phenyl]-2-[[2-(4-methylthiazol-5-yl)acetyl]amino]acetamide] | > 1000
2 | Cc1ncc(CC(=O)N[C@H](C(=O)Nc2ccc(-c3c(C)n[nH]c3C)cc2)C2CCCCC2)s1 [Example 52, (2S)-2-cyclohexyl-N-[4-(3,5-dimethyl-1H-pyrazol-4-yl)phenyl]-2-[[2-(2-methylthiazol-5-yl)acetyl]amino]acetamide] | > 1000
3 | Cc1n[nH]c(C)c1-c1ccc(NC(=O)[C@@H](NC(=O)Cn2ccnc2C)C2CCCCC2)cc1 [Example 53, (2S)-2-cyclohexyl-N-[4-(3,5-dimethyl-1H-pyrazol-4-yl)phenyl]-2-[[2-(2-methylimidazol-1-yl)acetyl]amino]acetamide] | > 1000
4 | Cc1n[nH]c(C)c1-c1ccc(NC(=O)[C@@H](NC(=O)Cc2ccc(N(C)C)cc2)C2CCCCC2)cc1 [Example 54, (2S)-2-cyclohexyl-2-[[2-(4-dimethylaminophenyl)acetyl]amino]-N-[4-(3,5-dimethyl-1H-pyrazol-4-yl)phenyl]acetamide] | 100 to 1000
5 | Cc1n[nH]c(C)c1-c1ccc(NC(=O)[C@@H](NC(=O)C(F)(F)c2ccccc2)C2CCCCC2)cc1 [Example 55, N-[(1S)-1-cyclohexyl-2-[4-(3,5-dimethyl-1H-pyrazol-4-yl)anilino]-2-oxo-ethyl]-2,2-difluoro-2-phenyl-acetamide] | 100 to 1000
6 | CCC(F)(F)C(=O)N[C@H](C(=O)Nc1ccc(-c2c(C)n[nH]c2C)cc1)C1CCCCC1 [Example 56, N-[(1S)-1-cyclohexyl-2-[4-(3,5-dimethyl-1H-pyrazol-4-yl)anilino]-2-oxo-ethyl]-2,2-difluoro-butanamide] | 100 to 1000
7 | Cc1n[nH]c(C)c1-c1ccc(NC(=O)[C@@H](NC(=O)C2(C)CC2)C2CCCCC2)cc1 [Example 57, N-[(1S)-1-cyclohexyl-2-[4-(3,5-dimethyl-1H-pyrazol-4-yl)anilino]-2-oxo-ethyl]-1-methyl-cyclopropanecarboxamide] | 100 to 1000
8 | Cc1nocc1C(=O)N[C@H](C(=O)Nc1ccc(-c2c(C)n[nH]c2C)cc1)C1CCCCC1 [Example 58, N-[(1S)-1-cyclohexyl-2-[4-(3,5-dimethyl-1H-pyrazol-4-yl)anilino]-2-oxo-ethyl]-3-methyl-isoxazole-4-carboxamide] | 100 to 1000
9 | Cc1nocc1C(=O)N[C@H](C(=O)Nc1ccc(-c2c(C)n[nH]c2C)cc1)C1CCCCCC1 [Example 59, N-[(1S)-1-cycloheptyl-2-[4-(3,5-dimethyl-1H pyrazol-4-yl)anilino]-2-oxo-ethyl]-3-methyl-isoxazole-4-carboxamide] | < 100
10 | Cc1n[nH]c(C)c1-c1ccc(NC(=O)[C@@H](NC(=O)c2cnnn2C)C2CCCCC2)cc1 [Example 60, N-[(1S)-1-cyclohexyl-2-[4-(3,5-dimethyl-1H-pyrazol-4-yl)anilino]-2-oxo-ethyl]-3-methyl-triazole-4-carboxamide] | 100 to 1000
11 | Cc1n[nH]c(C)c1-c1ccc(NC(=O)[C@@H](NC(=O)c2cnnn2-c2ccccc2)C2CCCCC2)cc1 [Example 61, N-[(1S)-1-cyclohexyl-2-[4-(3,5-dimethyl-1H-pyrazol-4-yl)anilino]-2-oxo-ethyl]-3-phenyl-triazole-4-carboxamide] | 100 to 1000
12 | Cc1n[nH]c(C)c1-c1ccc(NC(=O)[C@@H](NC(=O)c2cnnn2C)C2CCCCCC2)cc1 [Example 62, N-[(1S)-1-cycloheptyl-2-[4-(3,5-dimethyl-1H-pyrazol-4-yl)anilino]-2-oxo-ethyl]-3-methyl-triazole-4-carboxamide] | 100 to 1000
13 | Cc1n[nH]c(C)c1-c1ccc(NC(=O)[C@@H](NC(=O)c2cnnn2-c2ccccc2)C2CCCCCC2)cc1 [Example 63, N-[(1S)-1-cycloheptyl-2-[4-(3,5-dimethyl-1H-pyrazol-4-yl)anilino]-2-oxo-ethyl]-3-phenyl-triazole-4-carboxamide] | < 100
14 | Cc1n[nH]c(C)c1-c1ccc(NC(=O)[C@@H](NC(=O)c2c[nH]c3cnccc23)C2CCCCC2)cc1 [Example 64, N-[(1S)-1-cyclohexyl-2-[4-(3,5-dimethyl-1H-pyrazol-4-yl)anilino]-2-oxo-ethyl]-1H-pyrrolo[2,3-c]pyridine-3-carboxamide] | 100 to 1000
15 | Cc1n[nH]c(C)c1-c1ccc(NC(=O)[C@@H](NC(=O)c2c[nH]c3ncccc23)C2CCCCC2)cc1 [Example 65, N-[(1S)-1-cyclohexyl-2-[4-(3,5-dimethyl-1H-pyrazol-4-yl)anilino]-2-oxo-ethyl]-1H-pyrrolo[2,3-b]pyridine-3-carboxamide] | > 1000
16 | Cc1n[nH]c(C)c1-c1ccc(NC(=O)[C@@H](NC(=O)C2(F)CC2)C2CCCCC2)cc1 [Example 66, N-[(1S)-1-cyclohexyl-2-[4-(3,5-dimethyl-1H-pyrazol-4-yl)anilino]-2-oxo-ethyl]-1-fluoro-cyclopropanecarboxamide] | 100 to 1000
17 | Cc1n[nH]c(C)c1-c1ccc(NC(=O)[C@@H](NC(=O)C2(F)CC2)C2CCC(F)(F)CC2)cc1 [Example 67, N-[(1S)-1-(4,4-difluorocyclohexyl)-2-[4-(3,5-dimethyl-1H-pyrazol-4-yl)anilino]-2-oxo-ethyl]-1-fluoro-cyclopropanecarboxamide] | > 1000
18 | Cc1n[nH]c(C)c1-c1ccc(NC(=O)[C@@H](NC(=O)c2cnn3ccccc23)C2CCCCC2)cc1 [Example 68, N-[(1S)-1-cyclohexyl-2-[4-(3,5-dimethyl-1H-pyrazol-4-yl)anilino]-2-oxo-ethyl]pyrazolo[1,5-a]pyridine-3-carboxamide] | 100 to 1000
19 | Cc1n[nH]c(C)c1-c1ccc(NC(=O)[C@@H](NC(=O)c2conc2-c2ccc(Cl)cc2)C2CCCCC2)cc1 [Example 69, 3-(4-chlorophenyl)-N-[(1S)-1-cyclohexyl-2-[4-(3,5-dimethyl-1H-pyrazol-4-yl)anilino]-2-oxo-ethyl]isoxazole-4-carboxamide] | > 1000
20 | Cc1n[nH]c(C)c1-c1ccc(NC(=O)[C@@H](NC(=O)c2cnn3ncccc23)C2CCCCC2)cc1 [Example 70, N-[(1S)-1-cyclohexyl-2-[4-(3,5-dimethyl-1H-pyrazol-4-yl)anilino]-2-oxo-ethyl]pyrazolo[1,5-b]pyridazine-3-carboxamide] | 100 to 1000

More lines, now with the values ahead:

Row | EC50 [nM] | Compound
21 | 100 to 1000 | Cc1n[nH]c(C)c1-c1ccc(NC(=O)[C@@H](NC(=O)c2cn(C)c3ncccc23)C2CCCCC2)cc1 [Example 71, N-[(1S)-1-cyclohexyl-2-[4-(3,5-dimethyl-1H-pyrazol-4-yl)anilino]-2-oxo-ethyl]-1-methyl-pyrrolo[2,3-b]pyridine-3-carboxamide]
22 | > 1000 | Cc1n[nH]c(C)c1-c1ccc(NC(=O)[C@@H](NC(=O)c2cnc3ncccn23)C2CCCCC2)cc1 [Example 72, N-[(1S)-1-cyclohexyl-2-[4-(3,5-dimethyl-1H-pyrazol-4-yl)anilino]-2-oxo-ethyl]imidazo[1,2-a]pyrimidine-3-carboxamide]
23 | 100 to 1000 | Cc1n[nH]c(C)c1-c1ccc(NC(=O)[C@@H](NC(=O)c2coc3ccccc23)C2CCCCC2)cc1 [Example 73, N-[(1S)-1-cyclohexyl-2-[4-(3,5-dimethyl-1H-pyrazol-4-yl)anilino]-2-oxo-ethyl]benzofuran-3-carboxamide]
24 | 100 to 1000 | Cc1n[nH]c(C)c1-c1ccc(NC(=O)[C@@H](NC(=O)c2csc3ccccc23)C2CCCCC2)cc1 [Example 74, N-[(1S)-1-cyclohexyl-2-[4-(3,5-dimethyl-1H-pyrazol-4-yl)anilino]-2-oxo-ethyl]benzothiophene-3-carboxamide]
25 | 100 to 1000 | Cc1n[nH]c(C)c1-c1ccc(NC(=O)[C@@H](NC(=O)c2cnnn2C(C)C)C2CCCCC2)cc1 [Example 75, N-[(1S)-1-cyclohexyl-2-[4-(3,5-dimethyl-1H-pyrazol-4-yl)anilino]-2-oxo-ethyl]-3-isopropyl-triazole-4-carboxamide]
26 | 100 to 1000 | Cc1n[nH]c(C)c1-c1ccc(NC(=O)[C@@H](NC(=O)c2ccnn2C)[C@@H]2CCc3ccccc32)cc1 [Example 76, N-[(1S)-2-[4-(3,5-dimethyl-1H-pyrazol-4-yl)anilino]-1-[(1R)-indan-1-yl]-2-oxo-ethyl]-2-methyl-pyrazole-3-carboxamide]
27 | 100 to 1000 | Cc1n[nH]c(C)c1-c1ccc(NC(=O)[C@@H](NC(=O)c2ccnn2C)[C@@H]2CCc3ccc(Cl)cc32)cc1 [Example 77, N-[(1S)-1-[(1R)-6-chloroindan-1-yl]-2-[4-(3,5-dimethyl-1H-pyrazol-4-yl)anilino]-2-oxo-ethyl]-2-methyl-pyrazole-3-carboxamide]
28 | > 1000 | Cc1n[nH]c(C)c1-c1ccc(NC(=O)[C@@H](NC(=O)c2ccnn2C)[C@@H]2CCc3ccc(C#N)cc32)cc1 [Example 78, N-[(1S)-1-[(1R)-6-cyanoindan-1-yl]-2-[4-(3,5-dimethyl-1H-pyrazol-4-yl)anilino]-2-oxo-ethyl]-2-methyl-pyrazole-3-carboxamide]
29 | < 100 | Cc1n[nH]c(C)c1-c1ccc(NC(=O)[C@@H](NC(=O)c2ccnn2C)[C@H]2CCc3ccccc32)cc1 [Example 79, N-[(1S)-2-[4-(3,5-dimethyl-1H-pyrazol-4-yl)anilino]-1-[(1S)-indan-1-yl]-2-oxo-ethyl]-2-methyl-pyrazole-3-carboxamide]
30 | 100 to 1000 | Cc1n[nH]c(C)c1-c1ccc(NC(=O)[C@@H](NC(=O)c2ccnn2C)[C@H]2CCc3ccc(C#N)cc32)cc1 [Example 80, N-[(1S)-1-[(1S)-6-cyanoindan-1-yl]-2-[4-(3,5-dimethyl-1H-pyrazol-4-yl)anilino]-2-oxo-ethyl]-2-methyl-pyrazole-3-carboxamide]
